The values that follow are results of earlier work, collected in paper PMC4626739 (Toxins, 2015).

Turning to Kalata B1, the “resistance to chaotropic agents and proteases” value was “extremely resistant”; the thermal stability entry is reported as “highly thermostable”.
